These results are taken from patent US10744175B2, “Herbal composition for the treatment of Herpes” (priority 2016, dated 2020).

For the assay, the system named is Herpes simplex virus. As to the kind of experiment: Administration to human subjects with Herpes symptoms (case reports). The settings on record: case 3: taken for years by man and woman positive for HSV 1 and 2. Format: in vivo. The method, then: • 1. Frequent Genital herpes outbreaks—A person from Karnataka, India, suffers from severe blistering, pain and burning around the pubic region and genitals due to one or more strains of the Herpes virus. The composition of the invention as disclosed in Example 1 is administered. […] Tiny pimple-like outbreaks around lips—A person—starts experiencing tiny pimples on their lips which later appear like blisters. Blood tests show high titer from HSV 1 antibodies. […] Each tests positive for HSV 1 and 2. […] A person reports the presence of abnormal cells along with the presence of HPV. These cells then develop into “pre-cancerous” cells. This subject daily ingests the composition of Example 1 for 4 months. […] After administration of the composition of Example 1 for over 6 months, the results for HPV come back negative. • 6. A person reports warts on their hands for about 6 years which they remove with laser therapy. This burns the skin and leaves scars. […] A person reports an HPV infection for 5 years. Within the first 6 months of daily ingestion of the composition of Example 1, all tests for HPV are negative and no recurrence is shown. • 8. A person ingests the composition of Example 1 along with an alkaline diet. This subject suffers from larger warts (around 10 in number). […]

For the compound `Nc1nc2c(ncn2COCCO)c(=O)[nH]1` [acyclovir], the “outcome of previous antiviral treatment” value is recorded as “little success”.
